Patent US7109197B2, “N-phenyl-4-(4-pyridyl)-2-pyrimidineamine derivatives” (Syngenta Crop Protection, Inc., priority 2000, dated 2006)
Where a name gives a salt, the structure may show the parent alone.

Tests used:
[1] = tested on: Venturia inaegualis; experiment: Assay B-5: Residual protective activity against Venturia inaegualis on apples (scab on apple); assay type: in vivo; settings: Venturia inaegualis on apple seedlings cv. McIntosh; 0.02% active substance, spray
Method: Assay B-5: Residual Protective Activity Against Venturia inaegualis on Apples (Scab on Apple) 4 week old apple seedlings cv. McIntosh are treated with the formulated testcompound (0.02% active substance) in a spray chamber. One day after application apple plants are inoculated by spraying a spore suspension (4×10^5 conidia/ml) on the test plants. After an incubation period of 4 days at 21° C. and 95% r. h. the plants are placed for 4 days at 21° C. and 60% r. h. in a greenhouse. After another 4 day incubation period at 21° C. and 95% r. h. the disease incidence is assessed.

[2] = tested on: Botrytis cinerea; experiment: Assay B-7: Botrytis cinerea/grape (Botrytis on grapes); assay type: in vivo; settings: Botrytis cinerea on grape seedlings cv. Gutedel; 0.02% active substance, spray
Method: Assay B-7: Botrytis cinerea/Grape (Botrytis on Grapes) 5 week old grape seedlings cv. Gutedel are treated with the formulated testcompound (0.02% active substance) in a spray chamber. Two days after application grape plants are inoculated by spraying a spore suspension (1×10^6 conidia/ml) on the test plants. After an incubation period of 4 days at 21° C. and 95% r. h. in a greenhouse the disease incidence is assessed.

[3] = tested on: Botrytis cinerea; experiment: Assay B-8: Effect against Botrytis cinerea/tomato (Botrytis on tomatoes); assay type: in vivo; settings: Botrytis cinerea on tomato cv. Roter Gnom; 0.02% active substance, spray
Method: Assay B-8: Effect Against Botrytis cinerea/Tomato (Botrytis on Tomatoes) 4 week old tomato plants cv. Roter Gnom are treated with the formulated testcompound 0.02% active substance) in a spray chamber. Two days after application tomato plants are inoculated by spraying a spore suspension (1×10^5 conidia/ml) on the test plants. After an incubation period of 4 days at 20° C. and 95% r. h. in a greenhouse the disease incidence is assessed.

[4] = tested on: Pyrenophora teres (Helminthosporium); experiment: Assay B-10: Effect against Pyrenophora teres (Helminthosporium)/barley (net blotch on barley); assay type: in vivo; settings: Pyrenophora teres on barley cv. Regina, 0.02% active substance, spray; for pest or weed control at 0.02 % strength: 96 h, read-out: B10 activity
Method: Assay B-10: Effect Against Pyrenophora teres (Helminthosporium)/Barley (Net Blotch on Barley) 1 week old barley plants cv. Regina are treated with a formulated testcompound (0.02% active substance) in a spray chamber. Two days after application barley plants are inoculated by spraying a spore suspension (3×10^4 conidia/ml) on the test plants. After an incubation period of 2 days at 20° C. and 95% r.h. plants are kept for 2 days at 20° C. and 60% r.h. in a greenhouse. The disease incidence is assessed 4 days after inoculation.

[5] = tested on: Septoria nodorum; experiment: Assay B-12: Effect against Septoria nodorum/wheat (Septoria leaf spot on wheat); assay type: in vivo; settings: Septoria nodorum on wheat cv. Arina, 0.02% active substance, spray; for pest or weed control at 0.02 % strength: Parastagonospora nodorum, 264 h, read-out: B12 activity
Method: Assay B-12: Effect Against Septoria nodorum/Wheat (Septoria Leaf Spot on Wheat) 1 week old wheat plants cv. Arina are treated with a formulated test compound (0.02% active substance) in a spray chamber. One day after application wheat plants are inoculated by spraying a spore suspension (5×10^5 conidia/ml) on the test plants. After an incubation period of 1 day at 20° C. and 95% r.h. plants are kept for 10 days at 20° C. and 60% r.h. in a greenhouse. The disease incidence is assessed 11 days after inoculation.

[6] = tested on: Pyricularia oryzae; assay type: in vivo; settings: Pyricularia oryzae on rice cv. Sasanishiki; 0.02% active substance, spray

Row | Structure (SMILES) | B5 activity [1] | B7 activity [2] | B8 activity [3] | pest or weed control at 0.02 % strength [4] [%] | pest or weed control at 0.02 % strength [5] [%] | melting point [°C] | B10 activity [4] | B9 activity [6] | B12 activity [5]
1 | CCNc1cc(-c2ccnc(Nc3cccc(Cl)c3)n2)ccn1 [Compound 60] | + (the activity observed in the corresponding test system is 70% or more) | + (the activity observed in the corresponding test system is 70% or more) | + (the activity observed in the corresponding test system is 70% or more) | > 70 | > 70 | 201 | – | – | –
2 | O=C(Nc1cc(-c2ccnc(Nc3cccc(Cl)c3)n2)ccn1)C(F)(F)C(F)(F)F [Compound 93] | – | + (the activity observed in the corresponding test system is 70% or more) | + (the activity observed in the corresponding test system is 70% or more) | – | – | – | + (the activity observed in the corresponding test system is 70% or more) | – | –
3 | CNc1cc(-c2ccnc(Nc3cccc(Cl)c3)n2)ccn1 [Compound 64] | – | – | + (the activity observed in the corresponding test system is 70% or more) | > 70 | > 70 | 196 to 197 | – | – | –
4 | Clc1cccc(Nc2nccc(-c3ccnc(N4CCOCC4)c3)n2)c1 [Compound 17] | – | – | – | – | – | 175 to 176 | – | – | –
5 | CCC(=O)Nc1cc(-c2ccnc(Nc3cccc(Cl)c3)n2)ccn1 [Compound 96] | + (the activity observed in the corresponding test system is 70% or more) | – | – | > 70 | > 70 | 215 to 216 | – | – | –
6 | OCCCNc1cc(-c2ccnc(Nc3cccc(Cl)c3)n2)ccn1 [Compound 46] | – | – | – | – | – | – | + (the activity observed in the corresponding test system is 70% or more) | + (the activity observed in the corresponding test system is 70% or more) | + (the activity observed in the corresponding test system is 70% or more)
7 | CC(C)(C)Nc1cc(-c2ccnc(Nc3cccc(Cl)c3)n2)ccn1 [Compound 70] | – | – | + (the activity observed in the corresponding test system is 70% or more) | > 70 | > 70 | 125 to 126 | – | – | –
8 | NNc1cc(-c2ccnc(Nc3cccc(Cl)c3)n2)ccn1 [Compound 22] | – | – | – | > 70 | – | 201 to 203 | – | – | –
9 | CS(=O)(=O)O.Clc1cccc(Nc2nccc(-c3ccnc(NCCCn4ccnc4)c3)n2)c1 [Compound 49] | – | + (the activity observed in the corresponding test system is 70% or more) | + (the activity observed in the corresponding test system is 70% or more) | – | – | – | + (the activity observed in the corresponding test system is 70% or more) | – | + (the activity observed in the corresponding test system is 70% or more)
10 | Clc1cccc(Nc2nccc(-c3ccnc(N4CCNCC4)c3)n2)c1 [Compound 21] | – | – | – | – | – | 103 to 104 | – | – | –
11 | CCOC(=O)Nc1cc(-c2ccnc(Nc3cccc(Cl)c3)n2)ccn1 [Compound 121] | – | – | – | – | – | – | + (the activity observed in the corresponding test system is 70% or more) | + (the activity observed in the corresponding test system is 70% or more) | –
12 | CC(CNc1cc(-c2ccnc(Nc3cccc(Cl)c3)n2)ccn1)Cn1ccnc1 (stereo not drawn) [Compound 30] | + (the activity observed in the corresponding test system is 70% or more) | – | + (the activity observed in the corresponding test system is 70% or more) | – | – | – | + (the activity observed in the corresponding test system is 70% or more) | – | + (the activity observed in the corresponding test system is 70% or more)
13 | CC(COc1ncccn1)Nc1cc(-c2ccnc(Nc3cccc(Cl)c3)n2)ccn1 (stereo not drawn) [Compound 95] | + (the activity observed in the corresponding test system is 70% or more) | – | – | – | – | – | + (the activity observed in the corresponding test system is 70% or more) | – | + (the activity observed in the corresponding test system is 70% or more)
14 | C=CCNc1cc(-c2ccnc(Nc3cccc(Cl)c3)n2)ccn1 [Compound 69] | + (the activity observed in the corresponding test system is 70% or more) | + (the activity observed in the corresponding test system is 70% or more) | + (the activity observed in the corresponding test system is 70% or more) | – | – | – | + (the activity observed in the corresponding test system is 70% or more) | – | + (the activity observed in the corresponding test system is 70% or more)
15 | OCC(CO)Nc1cc(-c2ccnc(Nc3cccc(Cl)c3)n2)ccn1 [Compound 35] | + (the activity observed in the corresponding test system is 70% or more) | + (the activity observed in the corresponding test system is 70% or more) | + (the activity observed in the corresponding test system is 70% or more) | – | – | – | + (the activity observed in the corresponding test system is 70% or more) | – | –
16 | CCOCCNc1cc(-c2ccnc(Nc3cccc(Cl)c3)n2)ccn1 [Compound 26] | – | + (the activity observed in the corresponding test system is 70% or more) | + (the activity observed in the corresponding test system is 70% or more) | – | – | – | + (the activity observed in the corresponding test system is 70% or more) | – | + (the activity observed in the corresponding test system is 70% or more)
17 | CC(C)(CO)Nc1cc(-c2ccnc(Nc3cccc(Cl)c3)n2)ccn1 [Compound 28] | + (the activity observed in the corresponding test system is 70% or more) | + (the activity observed in the corresponding test system is 70% or more) | + (the activity observed in the corresponding test system is 70% or more) | – | – | – | + (the activity observed in the corresponding test system is 70% or more) | – | + (the activity observed in the corresponding test system is 70% or more)
18 | CCCC(CO)Nc1cc(-c2ccnc(Nc3cccc(Cl)c3)n2)ccn1 (stereo not drawn) [Compound 27] | – | + (the activity observed in the corresponding test system is 70% or more) | + (the activity observed in the corresponding test system is 70% or more) | – | – | – | + (the activity observed in the corresponding test system is 70% or more) | – | + (the activity observed in the corresponding test system is 70% or more)
19 | Clc1cccc(Nc2nccc(-c3ccnc(NCC4CCCO4)c3)n2)c1 (stereo not drawn) [Compound 75] | + (the activity observed in the corresponding test system is 70% or more) | + (the activity observed in the corresponding test system is 70% or more) | + (the activity observed in the corresponding test system is 70% or more) | – | – | – | + (the activity observed in the corresponding test system is 70% or more) | – | + (the activity observed in the corresponding test system is 70% or more)
20 | CC(C)Nc1cc(-c2ccnc(Nc3cccc(Cl)c3)n2)ccn1 (as salt: HCl) [Compound 82] | – | – | – | – | – | 88 to 89 | – | – | –
21 | COCOCC(C)N(COC)c1cc(-c2ccnc(Nc3cccc(Cl)c3)n2)ccn1 (stereo not drawn) [Compound 38] | + (the activity observed in the corresponding test system is 70% or more) | – | – | – | – | – | + (the activity observed in the corresponding test system is 70% or more) | – | + (the activity observed in the corresponding test system is 70% or more)
22 | CCC(C)C(CO)Nc1cc(-c2ccnc(Nc3cccc(Cl)c3)n2)ccn1 (stereo not drawn) [Compound 41] | + (the activity observed in the corresponding test system is 70% or more) | + (the activity observed in the corresponding test system is 70% or more) | – | – | – | – | + (the activity observed in the corresponding test system is 70% or more) | – | –
